These results are taken from patent publication US20230167073A1 (Teijin Pharma Limited, priority 2020, published 2023).

In this assay the target is T1, Human TRPC6 (Homo sapiens, UniProt Q9Y210).
T1 construct: expressed in transfected cells
T1 sequence (Q9Y210 1-931): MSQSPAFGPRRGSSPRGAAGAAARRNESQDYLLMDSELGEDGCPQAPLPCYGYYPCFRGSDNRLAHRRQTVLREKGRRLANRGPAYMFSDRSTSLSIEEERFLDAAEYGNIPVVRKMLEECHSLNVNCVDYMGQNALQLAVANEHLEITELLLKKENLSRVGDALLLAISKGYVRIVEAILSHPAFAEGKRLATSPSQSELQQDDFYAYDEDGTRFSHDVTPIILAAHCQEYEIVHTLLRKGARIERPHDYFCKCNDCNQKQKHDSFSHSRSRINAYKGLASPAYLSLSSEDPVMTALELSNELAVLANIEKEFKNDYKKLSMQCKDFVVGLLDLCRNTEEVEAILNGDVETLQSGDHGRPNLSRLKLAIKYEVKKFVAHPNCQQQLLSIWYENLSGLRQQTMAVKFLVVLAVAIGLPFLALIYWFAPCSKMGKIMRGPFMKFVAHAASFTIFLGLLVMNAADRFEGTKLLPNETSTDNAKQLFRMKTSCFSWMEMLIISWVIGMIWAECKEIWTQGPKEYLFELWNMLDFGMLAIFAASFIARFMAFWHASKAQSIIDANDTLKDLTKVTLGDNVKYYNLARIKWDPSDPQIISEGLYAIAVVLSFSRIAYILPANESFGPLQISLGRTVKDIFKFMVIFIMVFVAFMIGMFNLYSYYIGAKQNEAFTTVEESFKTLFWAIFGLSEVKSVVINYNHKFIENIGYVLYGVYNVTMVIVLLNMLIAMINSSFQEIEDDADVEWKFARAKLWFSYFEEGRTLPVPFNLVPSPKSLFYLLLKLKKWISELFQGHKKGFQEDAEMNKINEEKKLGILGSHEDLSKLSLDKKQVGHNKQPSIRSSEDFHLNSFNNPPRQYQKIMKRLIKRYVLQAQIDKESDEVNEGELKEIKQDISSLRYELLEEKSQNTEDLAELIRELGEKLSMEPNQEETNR
Description: Evaluation of TRPC6 channel inhibitory activity (1), FLIPR Calcium 5 Assay Kit, OAG stimulation (Compound Nos. 1-1293). It is filed as cell-based. Conditions: Human TRPC6 stably-expressing cells, OAG 30 μM, FLIPR Calcium 5 Assay Kit; read-out: Inhibitory activity (pIC50 class) (converted). The procedure, abridged:
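Calcium influx read by FLIPR fluorescence in cells stably expressing human TRPC6, dye-loaded 30 min. Compounds preincubated 20 min, then OAG stimulation at 30 μM final. Inhibition fitted by four-parameter logistic regression to give pIC50, reported as +/++/+++ categories.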
For `Cc1cc(Oc2cc(C#N)ccc2-c2ccc(CN)cn2)n(C)n1` [compound 323, 4-[5-(aminomethyl)pyridin-2-yl]-3-(2,5-dimethylpyrazol-3-yl)oxybenzonitrile], the IC50 was 10 to 1000 nM. In the case of `CC(C)Nc1cc(Oc2cc(C#N)ccc2-c2ncc(CN)cn2)cnn1` [compound 764, 4-[5-(aminomethyl)pyrimidin-2-yl]-3-[6-(propan-2-ylamino)pyridazin-4-yl]oxybenzonitrile], the IC50 was 10 to 1000 nM.

On to `Cc1nc(Oc2cc(C#N)ccc2-c2ncc(CCN)cn2)cc(-c2ccccn2)n1` [compound 599, 4-[5-(2-aminoethyl)pyrimidin-2-yl]-3-(2-methyl-6-pyridin-2-ylpyrimidin-4-yl)oxybenzonitrile], for which the IC50 was less than 10 nM. For `Cc1cnc(N2CCOCC2)cc1Oc1cc(C#N)ccc1-c1ncc(CCN)cn1` [compound 902, 4-[5-(2-aminoethyl)pyrimidin-2-yl]-3-(5-methyl-2-morpholin-4-ylpyridin-4-yl)oxybenzonitrile], the IC50 was 10 to 1000 nM. For `Cc1cc(Oc2cc(C#N)ccc2-c2ccc([C@H](O)CN)cn2)cc(-c2ncco2)n1` [compound 690, 4-[5-[(1S)-2-amino-1-hydroxyethyl]pyridin-2-yl]-3-[2-methyl-6-(1,3-oxazol-2-yl)pyridin-4-yl]oxybenzonitrile] the value was 10 to 1000 nM. For `N#Cc1ccc(-c2ncc(CCN)cn2)c(Cn2cc(N3CCCC3)cn2)c1` [Compound No. 1198, 4-[5-(2-Aminoethyl)pyrimidin-2-yl]-3-[(4-pyrrolidin-1-ylpyrazol-1-yl)methyl]benzonitrile] the value was 10 to 1000 nM; for `Cn1nc(C(F)(F)F)cc1Oc1cc(C#N)ccc1-c1ccc(CCN)cn1` [Compound 264, 4-[5-(2-aminoethyl)pyridin-2-yl]-3-[2-methyl-5-(trifluoromethyl)pyrazol-3-yl]oxybenzonitrile], less than 10 nM. As to `Cc1cc(Oc2nc(C#N)ccc2-c2ncc(CN)cn2)cc(-c2ccccn2)n1` [compound 1286, 5-[5-(aminomethyl)pyrimidin-2-yl]-6-(2-methyl-6-pyridin-2-ylpyridin-4-yl)oxypyridine-2-carbonitrile], the IC50 was more than 1000 nM.

In the case of `Cn1nc(-c2ccccn2)cc1Oc1cc(C#N)ccc1-c1ncc(CNC23CC4CC(CC(C4)C2)C3)cn1` [compound 666, 4-[5-[(1-adamantylamino)methyl]pyrimidin-2-yl]-3-(2-methyl-5-pyridin-2-ylpyrazol-3-yl)oxybenzonitrile], the IC50 was more than 1000 nM. For `Cn1nc(N2CCCCC2)cc1Oc1cc(C#N)ccc1-c1ccc(CCN)cn1` [compound 541, 4-[5-(2-aminoethyl)pyridin-2-yl]-3-(2-methyl-5-piperidin-1-ylpyrazol-3-yl)oxybenzonitrile] the value was less than 10 nM.

For the molecule `Cc1nc(-c2ccccc2)cn1Cc1cc(C#N)ccc1-c1ccc(CCN)cc1` [compound 1120, 4-[4-(2-aminoethyl)phenyl]-3-[(2-methyl-4-phenylimidazol-1-yl)methyl]benzonitrile], the IC50 is less than 10 nM.

As to `N#Cc1ccc(-c2ccc(CCN)cn2)c(C(=O)c2cnc(N3CCOCC3)o2)c1` [compound 1083, 4-[5-(2-aminoethyl)pyridin-2-yl]-3-(2-morpholin-4-yl-1,3-oxazole-5-carbonyl)benzonitrile], the IC50 is 10 to 1000 nM. With `N#Cc1ccc(-c2ccc(CN)cc2)c(Nc2cc(-c3ccccc3)ncn2)c1` [Compound 1, 4-[4-(aminomethyl)phenyl]-3-[(6-phenylpyrimidin-4-yl)amino]benzonitrile], the IC50 was 10 to 1000 nM.

Take `CN(CCF)c1cc(Oc2cc(C#N)ccc2-c2ncc(CCN)cn2)n(C)n1` [compound 822, 4-[5-(2-aminoethyl)pyrimidin-2-yl]-3-[5-[2-fluoroethyl(methyl)amino]-2-methylpyrazol-3-yl]oxybenzonitrile]: the IC50 is less than 10 nM. Take `Cn1cc(C(=O)c2cc(F)ccc2-c2ncc(CCN)cn2)cn1` [compound 1100, [2-[5-(2-aminoethyl)pyrimidin-2-yl]-5-fluorophenyl]-(1-methylpyrazol-4-yl)methanone]: the IC50 is more than 1000 nM. For `Cc1nn(CC(C)C)cc1Cc1cc(F)ccc1-c1ncc(CN)cn1` [compound 1225, [2-[4-fluoro-2-[[3-methyl-1-(2-methylpropyl)pyrazol-4-yl]methyl]phenyl]pyrimidin-5-yl]methanamine] the value was 10 to 1000 nM; for `Cc1nc(N2CCOCC2)sc1C(=O)c1cc(C#N)ccc1-c1ncc(CCN)cn1` [compound 1065, 4-[5-(2-aminoethyl)pyrimidin-2-yl]-3-(4-methyl-2-morpholin-4-yl-1,3-thiazole-5-carbonyl)benzonitrile], less than 10 nM; for `Cc1ccc(-c2cn(Cc3cc(C#N)ccc3-c3ccc(CCN)cn3)c(C)n2)cc1` [compound 1153, 4-[5-(2-aminoethyl)pyridin-2-yl]-3-[[2-methyl-4-(4-methylphenyl)imidazol-1-yl]methyl]benzonitrile], less than 10 nM. `CN(C)c1cc(Oc2cc(F)ccc2-c2ccc(CCN)cn2)n(C)n1` [compound 1000, 5-[2-[5-(2-aminoethyl)pyridin-2-yl]-5-fluorophenoxy]-N,N,1-trimethylpyrazole-3-amine]: the IC50 was less than 10 nM. For `Cc1cc(Oc2cc(C#N)ccc2-c2ncc(CCN)cn2)cc(N2CCOCC2)n1` [Compound 250, 4-[5-(2-aminoethyl)pyrimidin-2-yl]-3-(2-methyl-6-morpholin-4-ylpyridin-4-yl)oxybenzonitrile] the value was less than 10 nM; for `Cn1nc(-c2ncco2)cc1Oc1cc(C#N)ccc1-c1ccc([C@H](O)CN)cn1` [compound 588, 4-[5-[(1S)-2-amino-1-hydroxyethyl]pyridin-2-yl]-3-[2-methyl-5-(1,3-oxazol-2-yl)pyrazol-3-yl]oxybenzonitrile], 10 to 1000 nM. The same measure for `Cc1cc(Oc2nc(C#N)ccc2-c2ncc(CN)cn2)cc(N2CCOCC2)n1` [compound 1285, 5-[5-(aminomethyl)pyrimidin-2-yl]-6-(2-methyl-6-morpholin-4-ylpyridin-4-yl)oxypyridine-2-carbonitrile]: more than 1000 nM; for `Cn1nc(C2CC2)cc1Oc1cc(C#N)ccc1-c1cc(CCN)ccn1` [compound 482, 4-[4-(2-aminoethyl)pyridin-2-yl]-3-(5-cyclopropyl-2-methylpyrazol-3-yl)oxybenzonitrile]: less than 10 nM; for `Cc1cc(Oc2cc(C#N)ccc2-c2ccc(CN)cn2)cc(N2CCOCC2)n1` [compound 329, 4-[5-(aminomethyl)pyridin-2-yl]-3-(2-methyl-6-morpholin-4-ylpyridin-4-yl)oxybenzonitrile]: less than 10 nM. With `Cn1nc(N2CC(F)(F)C(F)(F)C2)cc1Oc1cc(C#N)ccc1-c1ncc(CCN)cn1` [compound 877, 4-[5-(2-aminoethyl)pyrimidin-2-yl]-3-[2-methyl-5-(3,3,4,4-tetrafluoropyrrolidin-1-yl)pyrazol-3-yl]oxybenzonitrile], the IC50 is less than 10 nM. The same measure for `CN(C)c1cc(Sc2cc(C#N)ccc2-c2ncc(CN)cn2)cnn1` [compound 1267, 4-[5-(aminomethyl)pyrimidin-2-yl]-3-[6-(dimethylamino)pyridazin-4-yl]sulfanylbenzonitrile]: more than 1000 nM; for `Cc1c(C(=O)c2cc(C#N)ccc2-c2ncc(CN)cn2)cnn1CC1CC1` [compound 1036, 4-[5-(aminomethyl)pyrimidin-2-yl]-3-[1-(cyclopropylmethyl)-5-methylpyrazole-4-carbonyl]benzonitrile]: more than 1000 nM; for `N#Cc1ccc(-c2ccc(C(O)CN)cn2)c(Cn2cncc2-c2ccccc2)c1` (stereo not shown) [compound 1133, 4-[5-(2-amino-1-hydroxyethyl)pyridin-2-yl]-3-[(5-phenylimidazol-1-yl)methyl]benzonitrile]: more than 1000 nM. Regarding `N#Cc1ccc(-c2ncc(CN)cn2)c(Cn2ccnc2-c2ccccc2)c1` [compound 1183], the IC50 was more than 1000 nM. Take `Cc1nc(Oc2cc(C#N)ccc2-c2nc(C)c(CN(C)C)s2)cc(-c2ccccc2)n1` [Compound 143, 4-[5-[(dimethylamino)methyl]-4-methyl-1,3-thiazol-2-yl]-3-(2-methyl-6-phenylpyrimidin-4-yl)oxybenzonitrile]: the IC50 was more than 1000 nM. `Cc1cc(Oc2cc(C#N)ccc2-c2ccc([C@H](O)CN)cn2)cc(OCCOC(C)C)n1` [compound 479, 4-[5-[(1S)-2-amino-1-hydroxyethyl]pyridin-2-yl]-3-[2-methyl-6-(2-propan-2-yloxyethoxy)pyridin-4-yl]oxybenzonitrile]: the IC50 was more than 1000 nM.
